Data taken from patent US20260049088A1, “TRICYCLIC HETEROCYCLIC DERIVATIVES, COMPOSITIONS AND USES THEREOF” (Danatlas Pharmaceuticals Co., Ltd., priority 2023, published 2026).

Each compound was assayed against T1, hPARG (Homo sapiens, UniProt Q86W56) (assay: PARG enzymatic activity assay (HTRF)). Settings: C-terminal His6-tag hPARG 65 pM, biotinylated-NAD ribosylated PARP1 substrate 8 nM.
T1 construct: made in house; host or cells: E. coli
Assay type: biochemical
Experimental: HTRF assay was used to measure the ability of compounds to inhibit the activity of […] in vitro. C-terminal His6—tag PARG expressed in E. coli was purified and stored at −80° C. in aliquots. Assay measurements were performed with 1×buffer comprising 50 mM Tris pH 7.4, 0.1 mg/mL BSA, 3 mM EDTA, 0.4 mM EGTA, 1 mM DTT, 50 mM KCl and 0.01% Tween 20. Compounds dissolved in DMSO were plated into a 384-well assay plate (PerkinElmer, Catalog #: 6008280) in duplicate using a dispenser (Labcyte, Echo 665), and tested on a 10-point 4-fold serial dilution. Add 5 μL Enzyme mix [hPARG (C-terminal His6—tag, 4.2 μM), 65 pM final] to the test wells. The plates were covered and left to incubate for 60 minutes at RT before the addition of 5 μL substrate mix [biotinylated-NAD ribosylated PARP1 (6.1 μM), 8 nM final] to initiate reaction. After incubating 10 minutes at RT, add 2.5 μL Streptavidin-Eu cryptate (Cisbio, Catalog #: 610SAKLA) and 2.5 μL Mab anti 6HIS-XL665 (Cisbio, Catalog #: 61HISXLA) to the plate, and incubate for 60 minutes at RT. Read on a multimode plate reader (PerkinElmer, Envision 2015) in time-resolved fluorescence (TRF) mode, with excitation at 337 nm and emission at both 620 nm and 665 nm. Average HTRF signal of high control (Wells with 1% DMSO) was calculated and as Vehicle Control (VC). Average HTRF signal of low control (no Enzyme) was calculated and as Positive control (PC).
IC50 values were determined by fitting the data to the standard 4 parameters with Hill Slope using GraphPad Prism software.

T1 sequence (Q86W56 whole entry): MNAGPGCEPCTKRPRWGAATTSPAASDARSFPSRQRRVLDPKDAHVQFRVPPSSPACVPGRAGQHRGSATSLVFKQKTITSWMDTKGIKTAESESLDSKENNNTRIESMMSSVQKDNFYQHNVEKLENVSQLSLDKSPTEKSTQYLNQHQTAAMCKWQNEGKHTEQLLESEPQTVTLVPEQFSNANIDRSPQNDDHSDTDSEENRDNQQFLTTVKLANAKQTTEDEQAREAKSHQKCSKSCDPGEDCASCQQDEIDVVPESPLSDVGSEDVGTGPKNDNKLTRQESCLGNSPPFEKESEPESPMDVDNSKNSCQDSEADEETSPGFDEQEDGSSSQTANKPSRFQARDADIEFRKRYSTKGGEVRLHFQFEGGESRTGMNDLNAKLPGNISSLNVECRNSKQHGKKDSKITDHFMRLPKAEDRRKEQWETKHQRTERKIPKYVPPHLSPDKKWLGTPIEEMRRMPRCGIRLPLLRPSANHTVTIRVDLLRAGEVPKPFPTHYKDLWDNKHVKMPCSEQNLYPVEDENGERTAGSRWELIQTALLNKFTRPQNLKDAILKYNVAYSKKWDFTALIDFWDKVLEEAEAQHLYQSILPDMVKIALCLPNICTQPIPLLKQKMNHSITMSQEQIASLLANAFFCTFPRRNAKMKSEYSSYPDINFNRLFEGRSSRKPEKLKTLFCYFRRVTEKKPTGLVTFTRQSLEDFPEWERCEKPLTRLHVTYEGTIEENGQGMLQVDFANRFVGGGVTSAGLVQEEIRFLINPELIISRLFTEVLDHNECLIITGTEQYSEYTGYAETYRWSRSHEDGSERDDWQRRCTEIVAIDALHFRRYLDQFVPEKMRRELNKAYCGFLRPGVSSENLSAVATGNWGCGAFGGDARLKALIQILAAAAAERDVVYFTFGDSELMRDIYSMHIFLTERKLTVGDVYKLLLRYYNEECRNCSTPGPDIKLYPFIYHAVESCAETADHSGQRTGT

Row | IC50 | Compound
1 | ≤ 100 nM | CCN(CC)[C@@H]1CCN(c2ncnc3c2c2ccc(S(=O)(=O)NC4(C#N)CC4)cc2n3-c2nnc(C(F)F)s2)C[C@H]1F [Example 35, N-(1-Cyanocyclopropyl)-4-((3R,4R)-4-(diethylamino)-3-fluoropiperidin-1-yl)-9-(5-(difluoromethyl)-1,3,4-thiadiazol-2-yl)-9H-pyrimido[4,5-b]indole-7-sulfonamide]
2 | ≤ 100 nM | CN1CCN(CCN(C)c2ncnc3c2c2ccc(S(=O)(=O)NC4(C#N)CC4)cc2n3-c2nnc(C(F)F)s2)C1=O [Example 60, N-(1-Cyanocyclopropyl)-9-(5-(difluoromethyl)-1,3,4-thiadiazol-2-yl)-4-(methyl(2-(3-methyl-2-oxoimidazolidin-1-yl)ethyl)amino)-9H-pyrimido[4,5-b]indole-7-sulfonamide]
3 | ≤ 100 nM | CN(C)CCN(C)c1ncnc2c1c1ccc(S(=O)(=O)NC3(C#N)CC3)cc1n2-c1nnc(C(F)F)s1 [Example 62, N-(1-Cyanocyclopropyl)-9-(5-(difluoromethyl)-1,3,4-thiadiazol-2-yl)-4-((2-(dimethylamino)ethyl)(methyl)amino)-9H-pyrimido[4,5-b]indole-7-sulfonamide]
4 | ≤ 100 nM | CC(C)(O)C#Cc1ncnc2c1c1ccc(S(=O)(=O)NC3(C#N)CC3)cc1n2-c1nnc(C(F)F)s1 [Example 88, N-(1-Cyanocyclopropyl)-9-(5-(difluoromethyl)-1,3,4-thiadiazol-2-yl)-4-(3-hydroxy-3-methylbut-1-yn-1-yl)-9H-pyrimido[4,5-b]indole-7-sulfonamide]
5 | ≤ 100 nM | N#CC1(NS(=O)(=O)c2ccc3c4c(O[C@H]5CCOC5)ncnc4n(-c4nnc(C(F)F)s4)c3c2)CC1 [Example 7, (S)-N-(1-Cyanocyclopropyl)-9-(5-(difluoromethyl)-1,3,4-thiadiazol-2-yl)-4-((tetrahydrofuran-3-yl)oxy)-9H-pyrimido[4,5-b]indole-7-sulfonamide]
6 | ≤ 100 nM | N#CC1(NS(=O)(=O)c2ccc3c4c(SCCO)ncnc4n(-c4nnc(C(F)F)s4)c3c2)CC1 [Example 27, N-(1-Cyanocyclopropyl)-9-(5-(difluoromethyl)-1,3,4-thiadiazol-2-yl)-4-((2-hydroxyethyl)thio)-9H-pyrimido[4,5-b]indole-7-sulfonamide]
7 | ≤ 100 nM | CCN[C@@H]1CCN(c2ncnc3c2c2ccc(S(=O)(=O)NC4(C#N)CC4)cc2n3-c2nnc(C(F)F)s2)C[C@@H]1F [Example 93, N-(1-Cyanocyclopropyl)-9-(5-(difluoromethyl)-1,3,4-thiadiazol-2-yl)-4-((3S,4R)-4-(ethylamino)-3-fluoropiperidin-1-yl)-9H-pyrimido[4,5-b]indole-7-sulfonamide]
8 | ≤ 100 nM | CCN(CC)[C@@H]1CCN(c2ncnc3c2c2ccc(S(=O)(=O)NC4(C#N)CC4)cc2n3-c2nnc(C(F)F)s2)CC1(F)F [Example 51, (R)-N-(1-Cyanocyclopropyl)-4-(4-(diethylamino)-3,3-difluoropiperidin-1-yl)-9-(5-(difluoromethyl)-1,3,4-thiadiazol-2-yl)-9H-pyrimido[4,5-b]indole-7-sulfonamide]
9 | ≤ 100 nM | N#CC1(NS(=O)(=O)c2ccc3c4c(N5CCC(N6CCC(F)(F)CC6)[C@@H](F)C5)ncnc4n(-c4nnc(C(F)F)s4)c3c2)CC1 (stereo partly drawn) [Example 36, N-(1-Cyanocyclopropyl)-9-(5-(difluoromethyl)-1,3,4-thiadiazol-2-yl)-4-((3′S)-3′,4,4-trifluoro-[1,4′-bipiperidin]-1′-yl)-9H-pyrimido[4,5-b]indole-7-sulfonamide]
10 | ≤ 100 nM | CCN(CC)CCOc1ncnc2c1c1ccc(S(=O)(=O)NC3(C#N)CC3)cc1n2-c1nnc(C(F)F)s1 [Example 10, N-(1-Cyanocyclopropyl)-4-(2-(diethylamino)ethoxy)-9-(5-(difluoromethyl)-1,3,4-thiadiazol-2-yl)-9H-pyrimido[4,5-b]indole-7-sulfonamide]
11 | ≤ 100 nM | N#CC1(NS(=O)(=O)c2ccc3c4c(C#CCN5CCOCC5)ncnc4n(-c4nnc(C(F)F)s4)c3c2)CC1 [Example 86, N-(1-Cyanocyclopropyl)-9-(5-(difluoromethyl)-1,3,4-thiadiazol-2-yl)-4-(3-morpholinoprop-1-yn-1-yl)-9H-pyrimido[4,5-b]indole-7-sulfonamide]
12 | ≤ 100 nM | Cc1nnc2n1CCN(c1ncnc3c1c1ccc(S(=O)(=O)NC4(C#N)CC4)cc1n3-c1nnc(C(F)F)s1)C2 [Example 47, N-(1-Cyanocyclopropyl)-9-(5-(difluoromethyl)-1,3,4-thiadiazol-2-yl)-4-(3-methyl-5,6-dihydro-[1,2,4]triazolo[4,3-a]pyrazin-7(8H)-yl)-9H-pyrimido[4,5-b]indole-7-sulfonamide]
13 | ≤ 100 nM | N#CC1(NS(=O)(=O)c2ccc3c4c(CCCN5CCOCC5)ncnc4n(-c4nnc(C(F)F)s4)c3c2)CC1 [Example 87, N-(1-Cyanocyclopropyl)-9-(5-(difluoromethyl)-1,3,4-thiadiazol-2-yl)-4-(3-morpholinopropyl)-9H-pyrimido[4,5-b]indole-7-sulfonamide]
14 | 100 to 1000 nM | CN(CCn1cccn1)c1ncnc2c1c1ccc(S(=O)(=O)NC3(C#N)CC3)cc1n2-c1nnc(C(F)F)s1 [Example 24, 4-((2-(1H-Pyrazol-1-yl)ethyl)(methyl)amino)-N-(1-cyanocyclopropyl)-9-(5-(difluoromethyl)-1,3,4-thiadiazol-2-yl)-9H-pyrimido[4,5-b]indole-7-sulfonamide]
15 | ≤ 100 nM | CN(CCc1ccccn1)c1ncnc2c1c1ccc(S(=O)(=O)NC3(C#N)CC3)cc1n2-c1nnc(C(F)F)s1 [Example 76, N-(1-Cyanocyclopropyl)-9-(5-(difluoromethyl)-1,3,4-thiadiazol-2-yl)-4-(methyl(2-(pyridin-2-yl)ethyl)amino)-9H-pyrimido[4,5-b]indole-7-sulfonamide]
16 | ≤ 100 nM | CN(C)CC1CN(c2ncnc3c2c2ccc(S(=O)(=O)NC4(C#N)CC4)cc2n3-c2nnc(C(F)F)s2)CCO1 (stereo not shown) [Example 37, N-(1-Cyanocyclopropyl)-9-(5-(difluoromethyl)-1,3,4-thiadiazol-2-yl)-4-(2-((dimethylamino)methyl)morpholino)-9H-pyrimido[4,5-b]indole-7-sulfonamide]
17 | ≤ 100 nM | CN1C[C@H]2C[C@@H]1CN2c1ncnc2c1c1ccc(S(=O)(=O)NC3(C#N)CC3)cc1n2-c1nnc(C(F)F)s1 [Example 30, N-(1-Cyanocyclopropyl)-9-(5-(difluoromethyl)-1,3,4-thiadiazol-2-yl)-4-((1R,4R)-5-methyl-2,5-diazabicyclo[2.2.1]heptan-2-yl)-9H-pyrimido[4,5-b]indole-7-sulfonamide]
18 | 100 to 1000 nM | CN1CCOCC1COc1ncnc2c1c1ccc(S(=O)(=O)NC3(C#N)CC3)cc1n2-c1nnc(C(F)F)s1 (stereo not shown) [Example 90, N-(1-Cyanocyclopropyl)-9-(5-(difluoromethyl)-1,3,4-thiadiazol-2-yl)-4-((4-methylmorpholin-3-yl)methoxy)-9H-pyrimido[4,5-b]indole-7-sulfonamide]
19 | ≤ 100 nM | N#CC1(NS(=O)(=O)c2ccc3c4c(N5CCO[C@@H](CO)C5)ncnc4n(-c4nnc(C(F)F)s4)c3c2)CC1 [Example 42, (R)-N-(1-Cyanocyclopropyl)-9-(5-(difluoromethyl)-1,3,4-thiadiazol-2-yl)-4-(2-(hydroxymethyl)morpholino)-9H-pyrimido[4,5-b]indole-7-sulfonamide]
